Measurements published in PMC5608406, “In vivo activation of latent HIV with a synthetic bryostatin analog effects both latent cell "kick" and "kill" in strategy for virus eradication” (PLoS Pathogens, 2017).

Key:
HIV strain NL-HA = assay type: in vivo, humanized BLT mice; details: IP injection while maintaining ART, overnight incubation
[1] = system: HA+ (HIV-expressing) cells; assay type: in vivo, humanized BLT mice; details: within 24 hours of activation, Ghost Red and Zombie Yellow
J-Lat 10.6 cell line = system: J-Lat 10.6 cell line; design: method as in PMID 22914190; details: cited from earlier work
U1 cells = assay: Activation of HIV from latency in U1 cell line (p24 ELISA); assay type: cell-based; details: 48h
Description: U1 cells (tested negative for bacteria, mold, yeast, and mycoplasma) were obtained through the AIDS Reagent Program, Division of AIDS, NIAID, NIH from Dr. Thomas Folks. Cells and compound were seeded in a final 200 μL volume of RF10 media at a cell density of 20,000 cells/well in v-bottomed 96 well plates and incubated at 37°C for 48 hours. After incubation, cells were pelleted and supernatant harvested then diluted in a 2% Triton-x-100/phosphate buffered saline solution. The concentration of HIV p24 protein in the culture supernatant was quantified using the HIV p24 antigen enzyme linked immunosorbent assay (ELISA) kit (Beckman Coulter) according to the manufacturer’s instructions.

PKC alpha = target: T1, PKC alpha (Homo sapiens, UniProt P17252); assay: PKC binding assay, competition with 3H-PDBu
T1 construct: purchased Invitrogen
Description: (§1) This entails a glass-fiber filtration method to determine bound radioligand.
(§2) To a polypropylene vial was added Tris-HCl (pH 7.4, 1 M, 1 mL), KCl (1 M, 2 mL), CaCl2 (0.1 M, 30 μL), and bovine serum albumin (40 mg, from Sigma). This mixture was diluted to 20 mL with deionized H2O, and mixed gently. The buffer was stored on ice until use. The final concentration of these constituents are shown in S2 Table.
(§3) For every 2 assays, 3.5 mg phosphatidylserine (Avanti Polar Lipids, porcine, obtained as a solution in CHCl3) was isolated by removing chloroform under a stream of nitrogen followed by reduced pressure. The solid PS was suspended as vesicles in binding assay buffer (3.5 mL) by sonicating (Branson Sonifier 250, power = 2, 50% duty cycle) six times for 30 s with a 30 s rest between sonications. The resulting cloudy mixture (1 mg/mL PS) was stored on ice until use.
(§4) Assay Protein Kinase C (PKC) was prepared by dissolving a 4 μg aliquot of the indicated recombinant human PKC isoform (Invitrogen) into 11.6 mL of binding assay buffer. The KD values for all 7 isoforms were determined experimentally. The diluted PKC was stored on ice for immediate use. This amount is sufficient for 2 assays with room for error.
(§5) This 500 nM stock solution was further diluted in DMSO to 30 nM for use in assays. The 500 nM and 30 nM stock solutions were stored frozen in DMSO at −20°C until use. […] Seven analog concentrations were used to define the inhibition curve.
(§6) The resulting solution was vortexed to mix and stored on ice.
(§7) Triplicate data points were obtained for each analog concentration. For each data point, 280 μL of Master Mix Solution and test compound at the given concentration (20 μL) were added to a polypropylene tube. […] Counts per minute (cpm) were averaged for each triplicate dilution.

PKC beta I = target: T2, PKC beta I (Homo sapiens, UniProt P05771); assay: PKC binding assay, competition with 3H-PDBu
T2 construct: purchased Invitrogen
T2 sequence (P05771 whole entry): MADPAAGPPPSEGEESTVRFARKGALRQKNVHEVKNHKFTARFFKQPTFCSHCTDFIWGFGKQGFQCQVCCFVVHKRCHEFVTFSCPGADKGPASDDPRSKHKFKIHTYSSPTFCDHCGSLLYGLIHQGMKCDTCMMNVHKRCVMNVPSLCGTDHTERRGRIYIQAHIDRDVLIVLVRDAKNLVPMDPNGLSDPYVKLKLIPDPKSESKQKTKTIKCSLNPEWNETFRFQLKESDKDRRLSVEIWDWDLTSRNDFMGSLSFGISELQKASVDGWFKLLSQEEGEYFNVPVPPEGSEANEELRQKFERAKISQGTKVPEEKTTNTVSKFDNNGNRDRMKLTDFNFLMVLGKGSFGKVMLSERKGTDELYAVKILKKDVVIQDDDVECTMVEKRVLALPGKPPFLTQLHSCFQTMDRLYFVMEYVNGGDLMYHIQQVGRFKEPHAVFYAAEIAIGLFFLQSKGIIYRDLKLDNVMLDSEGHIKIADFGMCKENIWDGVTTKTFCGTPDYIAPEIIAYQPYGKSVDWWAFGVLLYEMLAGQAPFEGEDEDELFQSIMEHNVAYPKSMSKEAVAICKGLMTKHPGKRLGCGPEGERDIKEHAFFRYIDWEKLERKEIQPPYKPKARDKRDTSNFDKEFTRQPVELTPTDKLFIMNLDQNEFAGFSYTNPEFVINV
Description: as §1, §2, §3, §4, §5, §6, §7

PKC eta = target: T3, PKC eta (Homo sapiens, UniProt P24723); assay: PKC binding assay, competition with 3H-PDBu
T3 construct: purchased Invitrogen
T3 sequence (P24723 whole entry): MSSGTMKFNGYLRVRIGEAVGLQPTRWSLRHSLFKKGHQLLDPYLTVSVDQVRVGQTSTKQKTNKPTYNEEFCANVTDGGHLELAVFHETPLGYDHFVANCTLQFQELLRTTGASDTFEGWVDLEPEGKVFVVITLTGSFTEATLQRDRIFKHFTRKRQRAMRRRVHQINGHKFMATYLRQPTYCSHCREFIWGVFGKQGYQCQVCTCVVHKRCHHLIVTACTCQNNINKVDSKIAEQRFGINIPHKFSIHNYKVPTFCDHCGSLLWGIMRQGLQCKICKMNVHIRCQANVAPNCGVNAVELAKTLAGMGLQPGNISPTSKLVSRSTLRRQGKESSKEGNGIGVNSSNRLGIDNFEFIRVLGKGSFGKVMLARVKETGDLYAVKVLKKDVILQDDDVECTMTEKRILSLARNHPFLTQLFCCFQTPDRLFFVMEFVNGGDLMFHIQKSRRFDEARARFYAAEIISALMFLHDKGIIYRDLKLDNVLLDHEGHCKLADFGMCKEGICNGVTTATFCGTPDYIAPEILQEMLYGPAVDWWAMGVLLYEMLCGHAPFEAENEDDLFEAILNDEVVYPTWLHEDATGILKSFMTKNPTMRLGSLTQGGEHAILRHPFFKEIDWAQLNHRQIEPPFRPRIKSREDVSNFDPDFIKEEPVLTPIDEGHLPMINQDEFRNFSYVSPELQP
Description: as §1, §2, §3, §4, §5, §6, §7

PKC epsilon = target: T4, PKC epsilon (Homo sapiens, UniProt Q02156); assay: PKC binding assay, competition with 3H-PDBu
T4 construct: purchased Invitrogen
T4 sequence (Q02156 1-737): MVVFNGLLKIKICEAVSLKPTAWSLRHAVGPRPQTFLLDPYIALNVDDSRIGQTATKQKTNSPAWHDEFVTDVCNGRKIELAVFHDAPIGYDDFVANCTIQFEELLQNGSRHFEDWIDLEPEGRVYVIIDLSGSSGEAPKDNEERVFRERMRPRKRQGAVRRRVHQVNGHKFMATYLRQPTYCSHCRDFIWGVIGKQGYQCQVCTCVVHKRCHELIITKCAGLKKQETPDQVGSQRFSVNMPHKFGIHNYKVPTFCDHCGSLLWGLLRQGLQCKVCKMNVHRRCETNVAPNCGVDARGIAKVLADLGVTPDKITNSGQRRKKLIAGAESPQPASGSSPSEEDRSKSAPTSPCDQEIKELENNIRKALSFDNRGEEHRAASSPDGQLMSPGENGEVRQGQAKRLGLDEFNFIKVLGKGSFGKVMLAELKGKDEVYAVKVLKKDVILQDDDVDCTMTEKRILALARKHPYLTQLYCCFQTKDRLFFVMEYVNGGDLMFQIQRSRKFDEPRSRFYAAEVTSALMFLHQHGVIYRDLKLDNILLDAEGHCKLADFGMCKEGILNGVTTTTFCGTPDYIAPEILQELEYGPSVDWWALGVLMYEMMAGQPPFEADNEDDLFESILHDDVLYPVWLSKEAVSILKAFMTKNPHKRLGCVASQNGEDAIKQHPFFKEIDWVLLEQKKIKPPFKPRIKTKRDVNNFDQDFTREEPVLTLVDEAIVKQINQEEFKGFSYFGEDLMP
Description: as §1, §2, §3, §4, §5, §6, §7

PKC gamma = target: T5, PKC gamma (Homo sapiens, UniProt P05129); assay: PKC binding assay, competition with 3H-PDBu
T5 construct: purchased Invitrogen
Description: as §1, §2, §3, §4, §5, §6, §7

PKC theta = target: T6, PKC theta (Homo sapiens, UniProt Q04759); assay: PKC binding assay, competition with 3H-PDBu
T6 construct: purchased Invitrogen
T6 sequence (Q04759 whole entry): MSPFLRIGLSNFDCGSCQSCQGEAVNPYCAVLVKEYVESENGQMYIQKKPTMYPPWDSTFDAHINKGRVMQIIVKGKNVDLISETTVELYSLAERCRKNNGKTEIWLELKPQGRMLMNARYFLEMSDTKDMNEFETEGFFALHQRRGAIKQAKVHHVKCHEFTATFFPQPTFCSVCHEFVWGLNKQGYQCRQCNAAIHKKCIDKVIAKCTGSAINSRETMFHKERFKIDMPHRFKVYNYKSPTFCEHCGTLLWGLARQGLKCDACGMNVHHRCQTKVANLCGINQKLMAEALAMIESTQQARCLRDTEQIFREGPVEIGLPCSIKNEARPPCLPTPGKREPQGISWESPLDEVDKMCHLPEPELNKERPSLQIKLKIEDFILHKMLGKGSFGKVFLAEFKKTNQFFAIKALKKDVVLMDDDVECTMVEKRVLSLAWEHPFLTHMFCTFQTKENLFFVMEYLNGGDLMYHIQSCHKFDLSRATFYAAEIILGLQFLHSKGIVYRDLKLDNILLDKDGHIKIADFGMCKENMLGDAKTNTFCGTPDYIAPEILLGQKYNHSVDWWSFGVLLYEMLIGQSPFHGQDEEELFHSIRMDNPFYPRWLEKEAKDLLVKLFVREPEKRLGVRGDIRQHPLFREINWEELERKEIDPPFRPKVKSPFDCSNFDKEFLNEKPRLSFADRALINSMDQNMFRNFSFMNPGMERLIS
Description: as §1, §2, §3, §4, §5, §6, §7

PKC delta = target: T7, PKC delta (Homo sapiens, UniProt Q05655); assay: PKC binding assay, competition with 3H-PDBu
T7 construct: purchased Invitrogen
T7 sequence (Q05655 whole entry): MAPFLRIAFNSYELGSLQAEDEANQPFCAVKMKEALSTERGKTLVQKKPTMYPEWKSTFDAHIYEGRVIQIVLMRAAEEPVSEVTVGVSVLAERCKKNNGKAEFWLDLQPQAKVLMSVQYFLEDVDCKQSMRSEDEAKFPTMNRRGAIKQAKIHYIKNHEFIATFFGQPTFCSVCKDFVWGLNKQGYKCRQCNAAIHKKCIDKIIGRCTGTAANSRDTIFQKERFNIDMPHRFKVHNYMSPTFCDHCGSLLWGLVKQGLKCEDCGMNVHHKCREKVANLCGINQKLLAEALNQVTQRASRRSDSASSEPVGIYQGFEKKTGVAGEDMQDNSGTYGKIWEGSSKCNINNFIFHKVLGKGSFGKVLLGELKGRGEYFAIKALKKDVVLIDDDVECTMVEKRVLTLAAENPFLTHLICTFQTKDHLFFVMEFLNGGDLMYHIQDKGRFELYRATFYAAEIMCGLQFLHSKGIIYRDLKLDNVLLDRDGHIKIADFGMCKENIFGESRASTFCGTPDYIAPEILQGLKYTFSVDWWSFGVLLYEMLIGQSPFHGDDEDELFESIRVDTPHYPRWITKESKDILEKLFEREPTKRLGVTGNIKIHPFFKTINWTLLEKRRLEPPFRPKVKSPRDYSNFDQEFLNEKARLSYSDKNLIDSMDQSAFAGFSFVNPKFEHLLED
Description: as §1, §2, §3, §4, §5, §6, §7

C57/bl6 mice = assay: In vivo acute toxicity / tolerability in C57/bl6 mice; details: intraperitoneal injection, in some cases
Description: C57/bl6 mice were obtained from the UCLA Department of Radiation Oncology. Compounds were suspended in DMSO and then further diluted in RF10 media to produce a final volume of 500 μL (containing a maximum 4% DMSO). These 500 μL volumes were administered to mice by intraperitoneal injection. Mice were monitored for acute toxicities and then sacrificed at the indicated times. Spleens were removed and disaggregated using a steel mesh, and then filtered through a 40 μm filter to produce a single-cell suspension. The resultant splenocytes were then stained for flow cytometry to analyze surface expression of relevant markers.

C=C1C[C@H]2C[C@]3(O)O[C@H](C[C@@H](O)CC(=O)O[C@@H](CO)C[C@@H]4C/C(=C\C(=O)OC)[C@H](OC(=O)CCCCCCC)[C@@](O)(O4)C(C)(C)/C=C/[C@@H](C1)O2)C[C@H](OC(C)=O)C3(C)C [SUW133]
percentage of HA+ (HIV-expressing) cells (HIV strain NL-HA): induced significant numbers of latently-infected cells to express viral proteins | cells induced to express HIV that stained with cell death dyes [1]: up to 25% | induction of HIV from latency (J-Lat 10.6 cell line): effectively induced HIV from latency | induction of latent virus (HIV p24 in supernatant) (U1 cells): induced significant levels of latent virus | Ki (PKC alpha): 1.8 nM | Ki (PKC beta I): 6.3 nM | Ki (PKC eta): 6.4 nM | Ki (PKC epsilon): 5.8 nM | Ki (PKC gamma): 5.6 nM | Ki (PKC theta): 2 nM | Ki (PKC delta): 2 nM | tolerated dose (C57/bl6 mice): up to 30 μg per animal
